The values that follow come from patent US20050096327A1, “Novel norepinephrine reuptake inhibitors for the treatment of central nervous system disorders” (priority 2003, published 2005).

Where a name gives a salt, the structure may show the parent alone.

In the assay the target is T1, human norepinephrine transporter (Homo sapiens, UniProt P23975).
T1 construct: host or cells: HEK-293
T1 sequence (P23975 whole entry): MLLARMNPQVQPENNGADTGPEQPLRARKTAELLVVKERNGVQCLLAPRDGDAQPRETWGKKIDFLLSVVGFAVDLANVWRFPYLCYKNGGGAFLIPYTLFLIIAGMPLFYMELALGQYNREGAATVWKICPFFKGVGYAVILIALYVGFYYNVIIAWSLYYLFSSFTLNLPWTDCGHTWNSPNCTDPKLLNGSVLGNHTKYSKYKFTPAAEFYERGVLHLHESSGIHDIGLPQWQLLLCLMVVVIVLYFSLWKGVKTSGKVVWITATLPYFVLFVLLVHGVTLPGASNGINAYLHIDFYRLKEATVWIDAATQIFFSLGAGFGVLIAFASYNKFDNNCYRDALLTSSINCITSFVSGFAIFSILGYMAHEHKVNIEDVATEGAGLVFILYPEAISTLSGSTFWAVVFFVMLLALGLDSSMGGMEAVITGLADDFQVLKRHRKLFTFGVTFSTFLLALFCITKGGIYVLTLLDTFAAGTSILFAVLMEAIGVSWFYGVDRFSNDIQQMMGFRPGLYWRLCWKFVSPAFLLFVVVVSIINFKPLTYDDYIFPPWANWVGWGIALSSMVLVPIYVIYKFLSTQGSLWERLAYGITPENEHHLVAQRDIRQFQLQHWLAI
The assay is described as follows: hNET receptor binding ([125I]-RTI-55, membranes of transfected HEK-293 cells). To be noted: 50 pM [125I]-RTI-55, 90 min room temperature; IC50 converted by Cheng-Prusoff. How it is done:
Cell pastes of HEK-293 cells transfected with the human norepinephrine transporter were supplied by the Pfizer Ann Arbor Protein Expression and Production group. Pellets were resuspended in 400 to 700 ml of Krebs-HEPES assay buffer (25 mM HEPES, 122 mM NaCl, 3 mM KCl, 1.2 mM MgSO4, 1.3 mM CaCl2, and 11 mM glucose, pH 7.4) with a Polytron homogenizer at setting 7 for 30 sec. Aliquots of membranes (5 mg/ml protein) were stored in liquid nitrogen until used.
The binding assay was set up in Beckman deep-well polypropylene plates with a total volume of 250 μl containing: drug (10^−5M to 10^−12M), cell membranes, and 50 pM [^125I]-RTI-55 (Perkin Elmer, NEX-272; specific activity 2200 Ci/mmol). The reaction was incubated by gentle agitation for 90 min at room temperature and was terminated by filtration through Whatman GF/C filter plates using a Brandel 96-well plate harvester. Scintillation fluid (100 μl) was added to each well, and bound [^125I]-RTI-55 was determined using a Wallac Trilux Beta Plate Counter. Test compounds were run in duplicate, and specific binding was defined as the difference between binding in the presence and absence of 10 μM desipramine.
Excel and GraphPad Prism software were used for data calculation and analysis. IC50 values were converted to Ki values using the Cheng-Prusoff equation. The Ki values for the hNET are reported below in Table 1.
With `CN1CCC(c2nc(-c3c(F)cccc3F)c3ccccc3n2)CC1` [Example 69, 4-(2,6-Difluoro-phenyl)-2-(1-methyl-piperidin-4-yl)-quinazoline], the Ki (usually a measure of affinity in units of concentration, obtained from inhibition or displacement) turned out to be 37.9 nM. `Clc1ccc(-c2nc(N3CCNCC3)nc3ccccc23)cc1` [Example 62, 4-(4-Chloro-phenyl)-2-piperazin-1-yl-quinazoline] registered a Ki of 17.3 nM. Then `Fc1cccc(F)c1-c1nc(N2CCNCC2)nc2ccccc12` [Example 29, 4-(2,6-Difluoro-phenyl)-2-piperazin-4-yl-quinazoline hydrochloride], with 4.8 nM; and `Cc1ccccc1-c1nc(C2CCCNC2)nc2ccccc12` (stereo not shown) [Example 78, 2-Piperidin-3-yl-4-o-tolyl-quinazoline], with 19.8 nM; and `Fc1cccc(F)c1-c1nc(N[C@H]2CCNC2)nc2ccccc12` [Example 58], with 8 nM.

The compound `CN1CCN(c2nc(-c3ccccc3Cl)c3ccccc3n2)CC1` [Example 19, 4-(2-Chloro-phenyl)-2-(4-methyl-piperazin-1-yl)-quinazoline] showed an inhibition constant Ki of 26.7 nM. `Fc1cccc(-c2nc(N3CCNCC3)nc3ccccc23)c1` [Example 60, 4-(3-Fluoro-phenyl)-2-piperazin-1-yl-quinazoline] registered a Ki of 4.1 nM. With `Fc1cccc(F)c1-c1nc(C2CCNCC2)nc2ccccc12` [Example 70, 4-(2,6-Difluoro-phenyl)-2-piperidin-4-yl-quinazoline] the figure was 2.9 nM; with `Fc1ccc(-c2nc(C3CCNCC3)nc3ccccc23)c(F)c1` [Example 72, 4-(2,4-Difluoro-phenyl)-2-piperidin-4-yl-quinazoline], 17.7 nM. Compound `Fc1ccc(-c2nc(N3CCNCC3)nc3ccccc23)c(Cl)c1` [Example 61, 4-(2-Chloro-4-fluoro-phenyl)-2-piperazin-1-yl-quinazoline] displayed a Ki of 6.9 nM. This Ki is about 2.6-fold lower than that of the compound before. Compound `Fc1ccc(F)c(-c2nc(C3CCNCC3)nc3ccccc23)c1F` [Example 73, 2-Piperidin-4-yl-4-(2,3,6-trifluoro-phenyl)-quinazoline] gave an inhibition constant Ki of 15.9 nM.

As for `c1ccc(-c2nc(N[C@H]3CCNC3)nc3ccccc23)cc1` [Example 17, (S)-(−)-3-(4-Phenyl-quinazolin-2-yl)-aminopyrrolidine hydrochloride], the affinity, expressed as Ki, was 45 nM. The compound “4-(2,4-Difluoro-phenyl)-2-piperazin-1-yl)-quinazoline hydrochloride [Example 38]” yielded a Ki of 2 nM.

With `Clc1ccccc1-c1nc(C2CCNCC2)nc2ccccc12` [Example 45, 4-(2-Chloro-phenyl)-2-piperidin-4-yl-quinazoline hydrochloride], the Ki stood at 8.7 nM. Regarding `NCCNc1nc(-c2ccccc2)c2ccccc2n1` [Example 13, N^1-(4-Phenyl-quinazolin-2-yl)-ethane-1,2-diamine hydrochloride], the Ki is 89.2 nM. `Fc1ccc2c(-c3ccccc3F)nc(C3CCNCC3)nc2c1` [Example 65, 7-Fluoro-4-(2-fluoro-phenyl)-2-piperidin-4-yl-quinazoline] returned a Ki of 3.3 nM. Then `Fc1ccc2nc(C3CCNCC3)nc(-c3ccccc3F)c2c1` [Example 64, 6-Fluoro-4-(2-fluoro-phenyl)-2-piperidin-4-yl-quinazoline], with 17.7 nM. With `Clc1cccc(Cl)c1-c1nc(N2CCNCC2)nc2ccccc12` [Example 63, 4-(2,6-Dichloro-phenyl)-2-piperazin-1-yl-quinazoline], affinity was put at a Ki of 17.6 nM. `C[C@@H]1CN(c2nc(-c3ccccc3)c3ccccc3n2)CCN1` [Example 31, (R)-(+)-2-(3-Methyl-piperazin-1-yl)-4-phenyl-quinazoline] yielded a Ki of 34.5 nM.

`Fc1cccc(Cl)c1-c1nc(C2CCNCC2)nc2ccccc12` [Example 75, 4-(2-Chloro-6-fluoro-phenyl)-2-piperidin-4-yl-quinazoline] had a Ki of 5.9 nM. Take `c1ccc(-c2nc(N3C4CCCC3CNC4)nc3ccccc23)cc1` [Example 55, 2-(3,9-Diaza-bicyclo[3.3.1]non-9-yl)-4-phenyl-quinazoline]: the affinity, expressed as Ki, was 11 nM. Then `Fc1ccc(-c2nc(C3CCNCC3)nc3ccccc23)cc1` [Example 68, 4-(4-Fluoro-phenyl)-2-piperidin-4-yl-quinazoline], with 40.6 nM. Then `Fc1ccccc1-c1nc(C2CCNCC2)nc2ccccc12` [Example 41, 4-(2-Fluoro-phenyl)-2-(piperidin-4-yl)-quinazoline hydrochloride], with 4 nM; and `c1ccc(-c2nc(N3CC4CNCC4C3)nc3ccccc23)cc1` (stereo not shown) [Example 81, 2-(Hexahydro-pyrrolo[3,4-c]pyrrol-2-yl)-4-phenyl-quinazoline], with 61 nM; and “2-Piperazin-1-yl-4-s-tolyl-quinazoline hydrochloride [Example 53]”, with 10.5 nM.

On to `CN1CCC(c2nc(-c3ccccc3Cl)c3ccccc3n2)CC1` [Example 44, 4-(2-Chloro-phenyl)-2-(1-methyl-piperidin-4-yl)-quinazoline], for which the affinity corresponds to a Ki of 62.5 nM. This Ki is about 6-fold higher than that of the compound before.

The compound `CN1CCC(c2nc(-c3cccc(F)c3)c3ccccc3n2)CC1` [Example 67, 4-(3-Fluoro-phenyl)-2-(1-methyl-piperidin-4-yl)-quinazoline] had a Ki of 53.5 nM. `c1ccc(-c2nc(C3CCNCC3)nc3ccccc23)cc1` [Example 42, 4-Phenyl-2-piperidin-4-yl-quinazoline hydrochloride]: the Ki was found to be 13.3 nM. Turning to `c1ccc(-c2nc(N3CC4CC3CN4)nc3ccccc23)cc1` (stereo not shown) [Example 80, 2-(2,5-Diaza-bicyclo[2.2.1]hept-2-yl)-4-phenyl-quinazoline], the Ki amounted to 9.5 nM.

With `c1ccc(Cc2nc(N3CCNCC3)nc3ccccc23)cc1` [Example 28, 4-Benzyl-2-piperazin-1-yl-quinazoline hydrochloride], the Ki turned out to be 93.4 nM. In turn, `CN[C@H]1CCN(c2nc(-c3ccccc3F)c3ccccc3n2)C1` [Example 35, (S)-(+)-1-[4-(2-Fluoro-phenyl)-quinazolin-2-yl]-pyrrolidin-3-yl}-methyl-amine hydrochloride] displayed a Ki of 19.3 nM.

The compound `Fc1cccc(-c2nc(C3CCNCC3)nc3ccccc23)c1F` [Example 71, 4-(2,3-Difluoro-phenyl)-2-piperidin-4-yl-quinazoline] registered a Ki of 3 nM. With `COc1ccccc1-c1nc(N2CCNCC2)nc2ccccc12` [Example 23, 4-(2-Methoxy-phenyl)-2-piperazin-1-yl-quinazoline hydrochloride], the Ki came to 29.5 nM. With `Cc1ccccc1-c1nc(C2CCNCC2)nc2ccccc12` [Example 76, 2-Piperidin-4-yl-4-o-tolyl-quinazoline] the figure was 44.7 nM; with `Fc1cccc(-c2nc(C3CCNCC3)nc3ccccc23)c1` [Example 66, 4-(3-Fluoro-phenyl)-2-piperidin-4-yl-quinazoline], 5.5 nM. Compound `c1ccc(-c2nc(N3CC4CC3CN4)nc3ccccc23)cc1` (stereo not shown) [Example 10, 2-(2,5-Diaza-bicyclo[2.2.1]hept-2-yl)-4-phenyl-quinazoline hydrochloride] registered an inhibitory constant (Ki) of 3.4 nM.

In the case of `Fc1ccccc1-c1nc(N2CC3CCCC(C2)N3)nc2ccccc12` [Example 33, 2-(3,9-Diaza-bicyclo[3.3.1]non-3-yl)-4-(2-fluoro-phenyl-quinazoline hydrochloride], the Ki worked out at 19 nM.
